Results as given in patent US12139458B2, “(2,5-dioxopyrrolidin-1-yl)(phenyl)-acetamide derivatives and their use in the treatment of neurological diseases” (UNIWERSYTET JAGIELLONSKI, priority 2019, dated 2024).

What was measured:
[1] = tested on: male white Swiss mice (CD-1); assay: Formalin test (analgesic activity); type: in vivo; conditions: Mus musculus, ip, i.p., mice
Description: (§1) The tests were carried out using male white Swiss mice (CD-1) weighing 18-25 g. All procedures were carried out in accordance with Polish and international guidelines on ethics of animal testing, after obtaining appropriate institutional approval. The study group consisted of 8-10 animals. The tested and reference substances were administered intraperitoneally 30 minutes before given test as suspension in 1% aqueous solution of Tween. All tests/models were carried out based on the procedures described in the specialist literature: the formalin test (Beirith, A.; Santos, A. R.; Calixto, J. B.; Rodrigues, A. L.; Creczynski-Pasa, T. B. Eur. J. Pharmacol. 1998, 345, 233-245), the model of capsaicin-induced pain (Mogilski, S.; Kubacka, M.; Redzicka, A.; Kazek, G.; Dudek, M.; Malinka, W.; Filipek, B. Pharmacol. Biochem. Behav. 2015, 133, 99-110), the model of oxaliplatin-induced neuropathic pain—von Frey test (Sałat, K.; Cios, A.; Wyska, E.; Satat, R.; Mogilski, S.; Filipek, B.; Wigȩkowski, K.; Malawska, B. Pharmacol. Biochem. Behav. 2014, 122, 173-181).
The pain was induced by the subplantar injection of 20 μL of 2.5% formalin solution into the mice right hind paw. The animals were placed in separate, transparent observation chambers for a period of 30 minutes. The measured value was the total licking and biting time of the paw to which the formalin solution was injected. The nociceptive reaction time was calculated for the first 5 minutes after formalin injection (first phase of the test—acute pain) and in the 15-20, 20-25 and 25-30 minutes time intervals after its administration (second phase of the test—inflammatory pain). The observed inhibition of nociceptive reaction—reduction of paw licking and biting time, was interpreted as the analgesic effect of the compound tested. Based on the results obtained, the ED50 dose was calculated (dose that reduces the nociceptive reaction time by 50%). […] Compound 6 was administered at doses of 10 mg/kg, 20 mg/kg and 30 mg/kg.

[2] = tested on: male white Swiss mice (CD-1); assay: Capsaicin-induced pain model; type: in vivo; conditions: Mus musculus, ip; i.p. 30 min before capsaicin, mice
Description: as §1
This test assesses the time of licking and/or biting the hind paw into which mice were injected subplantarly with capsaicin in an amount of 1.6 μg, dissolved in 20 μl of a mixture containing 0.9% saline and ethanol (5% of the final volume). Observation was carried out […] after capsaicin administration. Test compounds were administered intraperitoneally 30 minutes before administration of capsaicin. Inhibition of nociceptive reaction—shortening the time of licking and biting the paw was the measure of antinociceptive activity of the compound tested.
Valproic acid (VPA) was the reference compound in this test. […] Compound 6 was administered at 20 mg/kg, 30 mg/kg and 40 mg/kg. Test compounds were administered as a suspension in 1.0% Tween 80 solution. The control group consisted of mice treated with vehicle alone (1% Tween 80 solution). The nociceptive reaction time in this group was 43.29±3.21 seconds.

P-glycoprotein (Pgp) = molecular target: T1, P-glycoprotein (Pgp) (Homo sapiens, UniProt P08183); assay: Pgp-Glo Assay System (Pgp activity); type: in vitro ADME
T1 construct: purchased Promega (Madison, WI, USA)
Excerpt: Impact on Pgp activity. P-glycoprotein (Pgp) is an integral plasma membrane protein that, as an ATP-dependent […] pump, actively removes xenobiotics and can cause drug interactions. Pgp plays an important role in the absorption of drugs in the gastrointestinal tract and also through the blood-brain barrier. A commercial bioluminescent Pgp-Glo™ Assay System test (Promega, Madison, WI, USA) was used to study the effect of compound 6 on Pgp activity. The operation of the test is based on measuring changes in the level of ATP consumed by membranes containing the recombinant Pgp protein in the presence of test compounds. The results were presented as % of baseline activity and compared to reference compounds: selective Pgp inhibitor Na3VO4 and verapamil stimulator.
Impact on Pgp activity—methodology. The tests were performed according to the protocol of the bioluminescent Pgp-Glo™ Assay System test provided by the Promega company (Madison, WI, USA). […] Bioluminescence was measured with a PerkinElmer multispecific EnSpire plate reader (Waltham, MA USA). […] The calculated difference between the luminescence values of the inhibitor-treated sample and the control sample was taken as 100% of the Pgp base activity and treated as a negative control in the test. […] Statistical significance was calculated by one-way ANOVA variance analysis and the Bonferroni method using GraphPad Prism 5. […]

[3] = tested on: male Swiss albino mice (CD-1); assay: Psychomotor seizure test 6 Hz (44 mA); type: in vivo
Method in brief: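 Male CD-1 mice (groups of 4) given compounds i.p. in 1% Tween 30 min before a 3 s, 6 Hz corneal stimulus at 44 mA after lidocaine. Psychomotor seizure signs (immobility, forelimb clonus, vibrissae twitching, Straub tail) scored over 10 s; ANOVA with Dunnett's test, p<0.05.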

T1 sequence (P08183 whole entry): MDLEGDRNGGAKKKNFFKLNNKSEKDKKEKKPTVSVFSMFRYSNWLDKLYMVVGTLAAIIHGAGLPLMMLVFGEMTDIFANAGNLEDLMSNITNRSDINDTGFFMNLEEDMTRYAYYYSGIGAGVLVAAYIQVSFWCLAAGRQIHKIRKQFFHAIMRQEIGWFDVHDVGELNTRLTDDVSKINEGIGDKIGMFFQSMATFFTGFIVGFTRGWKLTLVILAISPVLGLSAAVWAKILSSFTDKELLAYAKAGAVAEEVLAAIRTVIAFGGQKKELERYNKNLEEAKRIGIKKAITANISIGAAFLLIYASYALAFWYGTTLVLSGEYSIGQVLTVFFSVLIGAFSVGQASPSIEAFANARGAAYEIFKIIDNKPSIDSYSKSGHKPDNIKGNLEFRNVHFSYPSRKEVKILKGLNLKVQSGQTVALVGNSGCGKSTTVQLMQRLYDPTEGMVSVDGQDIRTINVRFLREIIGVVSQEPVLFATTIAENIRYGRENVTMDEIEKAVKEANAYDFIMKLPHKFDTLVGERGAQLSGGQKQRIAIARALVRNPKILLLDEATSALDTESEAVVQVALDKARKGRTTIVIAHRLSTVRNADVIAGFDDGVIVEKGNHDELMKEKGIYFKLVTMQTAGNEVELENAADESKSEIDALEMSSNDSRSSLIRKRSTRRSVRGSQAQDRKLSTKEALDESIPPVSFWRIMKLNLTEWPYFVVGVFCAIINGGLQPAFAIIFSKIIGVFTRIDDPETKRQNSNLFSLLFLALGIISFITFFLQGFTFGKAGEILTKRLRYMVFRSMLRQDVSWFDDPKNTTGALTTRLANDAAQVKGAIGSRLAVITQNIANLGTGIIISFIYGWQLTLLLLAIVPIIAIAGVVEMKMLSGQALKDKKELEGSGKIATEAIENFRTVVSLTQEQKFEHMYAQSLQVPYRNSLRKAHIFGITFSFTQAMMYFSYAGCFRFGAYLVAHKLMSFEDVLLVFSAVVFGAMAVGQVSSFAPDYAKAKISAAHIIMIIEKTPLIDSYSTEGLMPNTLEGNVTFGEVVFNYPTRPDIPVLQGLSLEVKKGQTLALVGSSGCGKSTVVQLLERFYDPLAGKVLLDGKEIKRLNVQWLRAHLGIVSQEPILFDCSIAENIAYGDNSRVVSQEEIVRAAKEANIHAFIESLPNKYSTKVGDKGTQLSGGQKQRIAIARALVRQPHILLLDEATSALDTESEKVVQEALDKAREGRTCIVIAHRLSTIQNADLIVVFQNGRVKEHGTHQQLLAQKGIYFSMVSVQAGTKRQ

O=C(C(c1ccccc1)N1C(=O)CCC1=O)N1CCN(c2cccc(C(F)(F)F)c2)CC1 (racemic) [Compound 6, 1-(2-Oxo-1-phenyl-2-(4-(3-(trifluoromethyl)phenyl)piperazin-1-yl)ethyl)pyrrolidine-2,5-dione] was tested. Which ED50 ([1]; phase I (acute pain, 0-5 min), read-out: ED50 in the first phase of the formalin test) did it give?
Its ED50 is 28.5 mg/kg.

What about the ED50 ([1]; phase II (inflammatory pain, 15-30 min), read-out: ED50 in the second phase of the formalin test) of the same compound?
Its ED50 is 12.4 mg/kg.

What about the ED50 [2] of the same compound?
Its ED50 is 17.9 mg/kg.

What about the “effect on Pgp activity” value (P-glycoprotein (Pgp); 50 μM) of the same compound?
The value was “no effect on Pgp activity”.

What about the “Pgp activity, % of baseline activity” value (P-glycoprotein (Pgp); 100 μM, inhibitory effect, p<0.01) of the same compound?
Its value is 38%.

And the ED50 ([3]; Mus musculus, ip, 0.5 h, mice)?
Its ED50 is 73.2 mg/kg.

And the “6 Hz (44 mA): number of mice protected/number of mice tested” value ([3]; screening, 100 mg/kg i.p., 0.5 h, mice)?
The value was 4/4.

And the “mice protected in the 6 Hz (44 mA) test” value ([3]; screening, 100 mg/kg, time point 0.5 h)?
Its value is 100%.
